Test results from US20260035369A1, “VINCAMINE DERIVATIVES, PREPARATION METHOD THEREFOR, AND USE THEREOF” (SOUTHWEST UNIVERSITY, priority 2023, published 2026).

Test system: bEnd.3 cells
Assay: Cellular ROS levels (DCFH-DA) by single cell analyzer
Format: cell-based
Conditions: 2 hours, FIG. 10
Procedure: (10) The effect of lipid nanoparticles formed from the vincamine derivative (compound 2 (A5-B2-C6) as an example) on cellular ROS levels was detected using a single cell analyzer:
To detect cellular oxidative stress and intracellular reactive oxygen species (ROS) levels, a dichlorodihydrofluorescein diacetate (DCFH-DA) reactive oxygen species assay kit was used to detect the green fluorescence signal of ROS. bEnd.3 cells were seeded in cell culture dishes (50000 cells per dish) and cultured in 1 mL of culture medium for 12 hours. The culture medium in the wells was discarded and replaced with fresh complete medium. Lipid nanoparticles formed from the vincamine derivative (compound 2 (A5-B2-C6)) were added to the cells, and the cells were incubated in the dark at 37° C. in a 5% CO2 atmosphere for 2 hours. The cells in each group were incubated in PBS buffer containing […] DCFH-DA at 37° C. for 30 min. The cells were then washed three times in PBS buffer solution containing 0.1% BSA and fixed on glass slides. ROS levels were detected at the single-cell level using a fiber optic probe with a tip of approximately […]. The tip was inserted into the cells fixed in PBS, and photon counts were continuously detected and calculated within 150 s.

Row | Compound | cellular ROS levels
1 | CCCCCCCC/C=C\CCCCCCCC(=O)OCC(C[N+](C)(C)C)OC(=O)CCCCCCC/C=C\CCCCCCCC (centres unmarked) [DOTAP] | high ROS levels
2 | CCCCC/C=C\C/C=C\CCCCCCCCC(CCCCCCCC/C=C\C/C=C\CCCCC)OC(=O)CCCN(C)C [Dlin-MC3-DMA] | high ROS levels
